# Legend:
# CXCL-1 = assay: Muscle damage-protecting effect using myotube cell: CXCL-1 gene expression by quantitative real time PCR after H2O2 treatment; assay type: cell-based, mouse; conditions: C2C12 myotube cell, 10 μg/ml for 24 hours, then 1 mM H2O2 for 2 hours, relative to GAPDH, compared to hydrogen peroxide group, FIG. 4
# Method: (§1) In this evaluation system, the C2C12 myoblast cell line derived from a mouse was used. The cell line is preserved in RIKEN BIORESOURCE CENTER, Japan, and the cell line can be shared. The cell is differentiated from a mononuclear myoblast cell into a maltinuclear myotube cell by differentiation induction, to thereby have a muscle fiber-like form. The cell was seeded in a collagen I-coated 35-mm dish and cultured in DMEM (11965-092, manufactured by GIBCO)+10% FBS (hereinafter, may be referred to as a growth medium) at 37° C. under 5% CO2 until the culture had 90% confluence. […] The concentration of the purified total RNA was determined based on the measurement results of the absorbance (260 nm, 280 nm). […] A quantitative real time PCR was performed by using the obtained cDNA. In the quantitative real time PCR, qPCR super mix-UDG with ROX was used as a reaction reagent, as primers for IL-6 and CXCL-1, Mm00446190 (manufactured by AB Corporation) and Mm00433859 (manufactured by AB Corporation) were used, respectively, and as a primer for […] (hereinafter, may be referred to as GAPDH) which was used as an internal standard, Mm99999915 (manufactured by AB Corporation) was used. […]
# IL-6 = assay: Muscle damage-protecting effect using myotube cell: IL-6 gene expression by quantitative real time PCR after H2O2 treatment; assay type: cell-based, mouse; conditions: C2C12 myotube cell, 10 μg/ml for 24 hours, then 1 mM H2O2 for 2 hours, relative to GAPDH, compared to hydrogen peroxide group, FIGS. 3 and 4
# Method: as §1
smiles,measurement,setting,value
"CCCCCCCCCCCCCCC[C@@H](O)[C@@H](N)CO (single isomer, unassigned) [sphinganine]",gene expression of CXCL-1,CXCL-1,effect of inhibiting
same,gene expression of IL-6,IL-6,effect of inhibiting

# From patent US20100047374A1, “COMPOSITION FOR PROTECTING MUSCLE DAMAGE” (priority 2007, published 2010)
